Here are results for 29 compounds from ChEMBL document CHEMBL4414598, “Trifluorinated Pyrimidine-Based A2B Antagonists: Optimization and Evidence of Stereospecific Recognition” (J Med Chem, 2019).

What is called inhibition is the drop in the measured response relative to a control, in per cent. The term Ki denotes a measure of affinity in units of concentration, obtained from inhibition or displacement.

One experiment addresses Adenosine receptor A2a (Homo sapiens, UniProt P29274). Briefly: Displacement of [3H]ZM241385 from human recombinant A2A receptor expressed in human HeLa cell membranes at 1 uM incubated for 30 mins by radioligand binding competition assay relative to control. (In general: Displacement assays read how much labelled ligand stays bound in the presence of the test substance.)

In experiment [1] the target is T1, Adenosine receptor A1 (Homo sapiens) (UniProt P30542).
T1 sequence (whole entry): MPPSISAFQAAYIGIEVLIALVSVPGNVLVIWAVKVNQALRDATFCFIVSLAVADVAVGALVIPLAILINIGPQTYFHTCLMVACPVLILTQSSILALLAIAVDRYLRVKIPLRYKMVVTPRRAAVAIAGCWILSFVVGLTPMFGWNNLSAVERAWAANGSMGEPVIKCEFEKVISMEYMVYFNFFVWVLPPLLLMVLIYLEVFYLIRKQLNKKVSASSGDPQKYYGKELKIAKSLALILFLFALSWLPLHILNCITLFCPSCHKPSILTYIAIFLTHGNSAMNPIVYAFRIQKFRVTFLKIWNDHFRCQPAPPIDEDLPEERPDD
Briefly: Displacement of [3H]DPCPX from human recombinant A1 receptor expressed in CHOA1 cell membranes at 1 uM incubated for 60 mins by radioligand binding competition assay relative to control.

Another experiment addresses T2, Adenosine receptor A2b (Homo sapiens, UniProt P29275).
T2 sequence (P29275 whole entry): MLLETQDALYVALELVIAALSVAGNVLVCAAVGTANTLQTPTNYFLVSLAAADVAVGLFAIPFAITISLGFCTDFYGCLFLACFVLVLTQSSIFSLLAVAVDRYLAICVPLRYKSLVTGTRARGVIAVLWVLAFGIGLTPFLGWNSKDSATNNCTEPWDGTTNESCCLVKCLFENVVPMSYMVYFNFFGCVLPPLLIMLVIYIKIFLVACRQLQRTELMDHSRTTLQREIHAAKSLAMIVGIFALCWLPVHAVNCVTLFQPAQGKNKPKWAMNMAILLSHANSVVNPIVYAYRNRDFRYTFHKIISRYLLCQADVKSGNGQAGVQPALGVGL
Briefly: Displacement of [3H]DPCPX from human recombinant A2B receptor expressed in human HEK293 cell membranes incubated for 30 mins by radioligand binding competition assay.

The target in experiment [2] is T3, Adenosine receptor A3 (Homo sapiens) (UniProt P0DMS8).
T3 sequence (whole entry): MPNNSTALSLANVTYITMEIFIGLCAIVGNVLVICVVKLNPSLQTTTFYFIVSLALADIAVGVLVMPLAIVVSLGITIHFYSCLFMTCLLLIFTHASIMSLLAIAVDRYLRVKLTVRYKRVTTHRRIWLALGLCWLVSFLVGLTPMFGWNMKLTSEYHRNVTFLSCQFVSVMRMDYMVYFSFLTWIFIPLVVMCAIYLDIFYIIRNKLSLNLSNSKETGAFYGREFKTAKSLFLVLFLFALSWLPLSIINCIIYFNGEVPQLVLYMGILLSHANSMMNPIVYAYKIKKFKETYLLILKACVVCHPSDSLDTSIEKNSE
Briefly: Displacement of [3H]NECA from human A3 receptor expressed in human HeLa cell membranes at 1 uM incubated for 180 mins by radioligand binding competition assay relative to control.

The species entered for experiment [3] is Homo sapiens. Description: Selectivity index, ratio of Ki for displacement of [3H]DPCPX from human recombinant A1 receptor expressed in CHOA1 cell membranes incubated for 60 mins by radioligand binding competition assay to Ki for displacement of [3H]DPCPX from human recombinant A2B receptor expressed in human HEK293 cell membranes at 1 uM incubated for 30 mins by radioligand binding competition assay.

The species named for experiment [4] is Homo sapiens. Briefly: Selectivity index, ratio of Ki for displacement of [3H]ZM241385 from human recombinant A2A receptor expressed in human HeLa cell membranes incubated for 30 mins by radioligand binding competition assay to Ki for displacement of [3H]DPCPX from human recombinant A2B receptor expressed in human HEK293 cell membranes at 1 uM incubated for 30 mins by radioligand binding competition assay.

Experiment [5] is filed under the species Homo sapiens. Briefly: Selectivity index, ratio of Ki for displacement of [3H]NECA from human A3 receptor expressed in human HeLa cell membranes incubated for 180 mins by radioligand binding competition assay to Ki for displacement of [3H]DPCPX from human recombinant A2B receptor expressed in human HEK293 cell membranes at 1 uM incubated for 30 mins by radioligand binding competition assay.

The target in experiment [6] is T4, Adenosine receptor A2b (Homo sapiens) (UniProt P29275).
T4 sequence (whole entry): T2 sequence (P29275 whole entry)
Description: Displacement of [3H]DPCPX from human recombinant A2B receptor expressed in human HEK293 cell membranes at 1 uM incubated for 30 mins by radioligand binding competition assay relative to control.

Chain of Adenosine receptor A2a (P29274 whole entry): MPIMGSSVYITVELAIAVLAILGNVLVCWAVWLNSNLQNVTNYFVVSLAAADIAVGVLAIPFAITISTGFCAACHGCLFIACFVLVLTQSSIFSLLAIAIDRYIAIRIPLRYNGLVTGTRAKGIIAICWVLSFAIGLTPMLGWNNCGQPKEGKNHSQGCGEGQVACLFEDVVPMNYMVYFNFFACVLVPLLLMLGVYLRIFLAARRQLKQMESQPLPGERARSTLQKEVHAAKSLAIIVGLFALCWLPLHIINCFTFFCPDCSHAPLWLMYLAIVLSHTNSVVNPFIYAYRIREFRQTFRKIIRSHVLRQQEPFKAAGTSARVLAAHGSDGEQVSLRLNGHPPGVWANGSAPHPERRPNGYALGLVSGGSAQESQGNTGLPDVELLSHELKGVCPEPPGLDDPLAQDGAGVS

As to `CCOC(=O)C1=C(C(F)(F)F)Nc2nc3ccccc3n2[C@@H]1c1ccoc1`, the inhibition was found to be 9% at Adenosine receptor A2a, 11% in experiment [1] and 3% in experiment [2]. For the same compound, the Ki at Adenosine receptor A2b worked out at 13.7 nM.
Regarding `CC(C)OC(=O)C1=C(C(F)(F)F)NC(=O)NC1c1ccsc1` (racemic), the inhibition on Adenosine receptor A2a stood at 9%; in experiment [1], 23%; in experiment [2], 3%. The Ki at Adenosine receptor A2b was determined as 651 nM.
Take `CC(C)OC(=O)C1=C(C(F)(F)F)NC(=O)NC1c1ccco1` (racemic): the inhibition on Adenosine receptor A2a is 24%; in experiment [1] it was 11%; in experiment [2], 5%. For the same compound, the Ki on Adenosine receptor A2b came out at 238 nM.
With `CC1=C(C(=O)OC(C)C(F)(F)F)C(c2ccco2)NC(=O)N1` (stereo in doubt; 14i-D2), the Ki on Adenosine receptor A2b amounted to 303 nM.
In the case of `CC1=C(C(=O)OCC(F)(F)F)[C@@H](c2ccco2)n2c(nc3ccccc32)N1`, the inhibition at Adenosine receptor A2a amounted to 1%; in experiment [1], 9%; in experiment [2], 7%. The inhibitory constant (Ki) on Adenosine receptor A2b was determined as 11.2 nM.
Turning to `CC1=C(C(=O)OCC(F)(F)F)C(c2ccoc2)n2c(nc3ccccc32)N1` (racemic), the values for the inhibition (at Adenosine receptor A2a; in experiment [1]; in experiment [2]) were 11%, 14% and 1%, respectively. Also, at Adenosine receptor A2b, the Ki amounted to 42.1 nM. Besides, the Ratio Ki in the experiment listed under Homo sapiens [3], in the experiment listed under Homo sapiens [4] and in the experiment listed under Homo sapiens [5] was greater than 1000 in each case.
As to `CCOC(=O)C1=C(C(F)(F)F)NC(=O)NC1c1ccoc1` (racemic), the inhibition at Adenosine receptor A2a turned out to be 55%; in experiment [1], 37%; in experiment [2], 1%. Besides, the inhibitory constant (Ki) at Adenosine receptor A2b was determined as 521 nM.
Regarding `CCOC(=O)C1=C(C(F)(F)F)Nc2nc3ccccc3n2C1c1ccco1` (racemic), the inhibition on Adenosine receptor A2a amounted to 4%; in experiment [1], 11%; in experiment [2] it was 20%. In addition, the Ki at Adenosine receptor A2b was 731 nM.
On to `CCOC(=O)C1=C(C(F)(F)F)Nc2nc3ccccc3n2C1c1ccoc1` (racemic), for which the inhibition is 18% at Adenosine receptor A2a, 9% in experiment [1] and 6% in experiment [2]. Besides, the inhibition constant Ki on Adenosine receptor A2b worked out at 37.4 nM.
On to `CC1=C(C(=O)OC(C)C(F)(F)F)C(c2ccsc2)NC(=O)N1` (stereo in doubt; 14l-D1), for which the inhibitory constant (Ki) on Adenosine receptor A2b worked out at 643 nM.
For the compound `CC1=C(C(=O)OC(C)C(F)(F)F)C(c2ccco2)NC(=O)N1` (stereo in doubt; 14i-D1), the Ki on Adenosine receptor A2b stood at 61.5 nM.
For the compound `CC1=C(C(=O)OCC(F)(F)F)C(c2ccco2)n2c(nc3ccccc32)N1` (racemic), the values for the inhibition (at Adenosine receptor A2a; in experiment [1]; in experiment [2]) were 7%, 16% and 23%, respectively. Besides, the inhibition constant Ki on Adenosine receptor A2b came out at 27 nM.
Turning to `CC1=C(C(=O)OC(C)C(F)(F)F)C(c2ccoc2)NC(=O)N1` (stereo in doubt; 14j-D1), the Ki at Adenosine receptor A2b turned out to be 234 nM.
For the compound `CC1=C(C(=O)O[C@H](C)C(F)(F)F)C(c2ccco2)n2c(nc3ccccc32)N1` (mixture of isomers), the inhibition on Adenosine receptor A2a turned out to be 11%; in experiment [1] it was 12%; in experiment [2], 23%. At Adenosine receptor A2b, the Ki came out at 17 nM.
As to `CC1=C(C(=O)O[C@@H](C)C(F)(F)F)[C@@H](c2ccco2)n2c(nc3ccccc32)N1`, the inhibition at Adenosine receptor A2a was 5%; in experiment [1] it was 22%; in experiment [2], 21%. Also, the Ki on Adenosine receptor A2b is 8.73 nM.
For the compound `CC1=C(C(=O)O[C@@H](C)C(F)(F)F)C(c2ccco2)n2c(nc3ccccc32)N1` (mixture of isomers), the figures for the inhibition (on Adenosine receptor A2a; in experiment [1]; in experiment [2]) were 1%, 26% and 7%, respectively. Also, at Adenosine receptor A2b, the inhibition constant (Ki) was 15.1 nM.
With `CCOC(=O)C1=C(C(F)(F)F)NC(=O)NC1c1ccsc1` (racemic), the inhibition on Adenosine receptor A2a is 46%; in experiment [1], 32%; in experiment [2], 3%. Besides, the inhibition constant (Ki) on Adenosine receptor A2b was 575 nM.
In the case of `CC(C)OC(=O)C1=C(C(F)(F)F)Nc2nc3ccccc3n2C1c1ccoc1` (racemic), the inhibition on Adenosine receptor A2a amounted to 23%; in experiment [1] it was 8%; in experiment [2] it was 23%. The Ki on Adenosine receptor A2b was determined as 49.2 nM. Also, the Ratio Ki in the experiment filed under Homo sapiens [3], in the experiment listed under Homo sapiens [4] and in the experiment filed under Homo sapiens [5] was greater than 1000 throughout.
On to `CC1=C(C(=O)O[C@H](C)C(F)(F)F)[C@@H](c2ccco2)n2c(nc3ccccc32)N1`, for which the inhibition at Adenosine receptor A2a was 1%; in experiment [1] it was 12%; in experiment [2], 14%. Further, on Adenosine receptor A2b, the Ki was determined as 6.91 nM.
For the compound `CC(C)OC(=O)C1=C(C(F)(F)F)NC(=O)NC1c1ccoc1` (racemic), the inhibition at Adenosine receptor A2a turned out to be 21%; in experiment [1] it was 27%; in experiment [6], 37%; in experiment [2], 1%.
Turning to `CC1=C(C(=O)OCC(F)(F)F)C(c2ccco2)NC(=O)N1` (racemic), the results for the inhibition (at Adenosine receptor A2a; in experiment [1]; in experiment [2]) were 1%, 10% and 1%, respectively. On Adenosine receptor A2b, the inhibitory constant (Ki) is 157 nM.
As for `CC(C)OC(=O)C1=C(C(F)(F)F)NC(=O)NC1c1cccs1` (racemic), the inhibition amounted to 13% on Adenosine receptor A2a, 8% in experiment [1], 19% in experiment [6] and 7% in experiment [2].
In the case of `CCOC(=O)C1=C(C(F)(F)F)NC(=O)NC1c1cccs1` (racemic), the inhibition came to 20% at Adenosine receptor A2a, 28% in experiment [1], 16% in experiment [6] and 1% in experiment [2].
Turning to `CC1=C(C(=O)OCC(F)(F)F)C(c2ccoc2)NC(=O)N1` (racemic), the inhibition on Adenosine receptor A2a is 9%; in experiment [1], 13%; in experiment [2], 1%. Besides, at Adenosine receptor A2b, the inhibition constant (Ki) was found to be 588 nM.
On to `CC1=C(C(=O)OC(C(F)(F)F)C(F)(F)F)C(c2ccsc2)NC(=O)N1` (racemic), for which the inhibition on Adenosine receptor A2a is 1%; in experiment [1] it was 17%; in experiment [6], 1%; in experiment [2], 8%.
Consider `CC1=C(C(=O)OC(C)C(F)(F)F)C(c2cccs2)NC(=O)N1` (stereo in doubt; 14k-D2), for which the inhibition on Adenosine receptor A2a came out at 1%; in experiment [1], 16%; in experiment [6] it was 1%; in experiment [2], 3%.
As to `CC1=C(C(=O)OC(C)C(F)(F)F)C(c2ccco2)n2c(nc3ccccc32)N1` (racemic), the figures for the inhibition (at Adenosine receptor A2a; in experiment [1]; in experiment [2]) were 4%, 3% and 18%, respectively. Further, the Ki on Adenosine receptor A2b came to 29.6 nM.
In the same order, the values of `CCOC(=O)C1=C(C(F)(F)F)Nc2nc3ccccc3n2C1c1ccsc1` (racemic) are 13%, 16%, 29% and 118 nM.
In the case of `CC1=C(C(=O)OC(C)C(F)(F)F)C(c2ccoc2)n2c(nc3ccccc32)N1` (racemic), the inhibition was 3% on Adenosine receptor A2a, 2% in experiment [1] and 3% in experiment [2]. Moreover, the Ki at Adenosine receptor A2b was 52.3 nM. In addition, the Ratio Ki in the experiment filed under Homo sapiens [3], in the experiment listed under Homo sapiens [4] and in the experiment filed under Homo sapiens [5] was greater than 1000 throughout.
